In patent publication US20260355196A1, “INHIBITORS AND DEGRADERS OF PIP4K PROTEIN” (Larkspur Biosciences, Inc., priority 2023, published 2026):

Biological target: T1, PIP4K2C (Homo sapiens, UniProt Q8TBX8)
T1 sequence (Q8TBX8 1-421): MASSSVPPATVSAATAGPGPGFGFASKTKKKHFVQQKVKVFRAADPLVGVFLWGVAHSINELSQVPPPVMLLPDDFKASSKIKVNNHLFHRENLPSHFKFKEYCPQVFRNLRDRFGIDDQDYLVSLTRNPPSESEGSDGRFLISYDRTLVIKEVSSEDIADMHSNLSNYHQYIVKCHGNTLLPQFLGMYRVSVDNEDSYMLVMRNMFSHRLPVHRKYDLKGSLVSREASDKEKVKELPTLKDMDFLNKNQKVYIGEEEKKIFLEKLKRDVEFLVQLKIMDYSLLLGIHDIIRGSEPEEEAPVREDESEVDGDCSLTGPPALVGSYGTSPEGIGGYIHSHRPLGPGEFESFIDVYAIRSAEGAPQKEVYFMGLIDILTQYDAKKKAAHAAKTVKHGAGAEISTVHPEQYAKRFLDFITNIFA
Experiment: HiBiT PIP4K2C degradation assay in MOLT-4 cells (endogenous PIP4K2C C-terminally tagged with HiBiT)
Format: cell-based
Parameters: untagged in primary human PBMCs and monocyte-derived dendritic cells
Conditions: 6 hours of incubation time, rather than 24 hours; MOLT-4, top concentration 10 micromolar; read-out: HiBIT-degradation MOLT4 PIP4k2C DC50 (6 hours, marked *)
Summary of the method: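 In a CRISPR-engineered MOLT-4 clone carrying HiBiT-tagged PIP4K2C, degradation was assessed after 24 or 6 hours of dosing (10 micromolar top, 3-fold steps). Luminescence from lytic HiBiT detection was fitted to obtain DC50.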

Q: With `O=C1CCC(Nc2ccc(N3CCC(N4CCC(NC(=O)[C@H]5CC[C@H](Nc6ncc(F)c(-c7cccc(N8CCCCC8)c7)n6)CC5)CC4)CC3)c(F)c2)C(=O)N1` (stereo partly drawn) [Compound 531, trans-N-(1′-(4-((2,6-dioxopiperidin-3-yl)amino)-2-fluorophenyl)-[1,4′-bipiperidin]-4-yl)-4-((5-fluoro-4-(3-(piperidin-1-yl)phenyl)pyrimidin-2-yl)amino)cyclohexane-1-carboxamide] as the compound, how does the DC50 read?
A: Its DC50 is under 500 nM.

Q: Which DC50 does the source give for `O=C1CCC(Nc2ccc(N3CCC(N4CCC(NC(=O)[C@H]5CC[C@H](Nc6ncc(F)c(-c7cccc(N8CCOCC8=O)c7)n6)CC5)CC4)CC3)c(F)c2)C(=O)N1` (stereo partly drawn) [Compound 532, trans-N-(1′-(4-((2,6-dioxopiperidin-3-yl)amino)-2-fluorophenyl)-[1,4′-bipiperidin]-4-yl)-4-((5-fluoro-4-(3-(3-oxomorpholino)phenyl)pyrimidin-2-yl)amino)cyclohexane-1-carboxamide] here?
A: Its DC50 is under 500 nM.

Q: For `O=C1CCC(Nc2ccc(N3CCC(N4CCC(NC(=O)[C@H]5CC[C@H](Nc6ncc(F)c(-c7cccc(C8CC8)c7)n6)CC5)CC4)CC3)c(F)c2)C(=O)N1` (stereo partly drawn) [Compound 533, trans-4-((4-(3-cyclopropylphenyl)-5-fluoropyrimidin-2-yl)amino)-N-(1′-(4-((2,6-dioxopiperidin-3-yl)amino)-2-fluorophenyl)-[1,4′-bipiperidin]-4-yl)cyclohexane-1-carboxamide], which DC50 is on record?
A: The DC50 was under 500 nM.

Q: With `Cn1nc(C2CCC(=O)NC2=O)c2ccc(C3CCN(C[C@H]4CC[C@H](C(=O)N[C@H]5CC[C@H](Nc6ncc(F)c(-c7cccc(-n8ccccc8=O)c7)n6)CC5)CC4)CC3)cc21` (stereo partly drawn) [Compound 535, trans-(1r,4R)-4-((4-(3-(2,6-dioxopiperidin-3-yl)-1-methyl-1H-indazol-6-yl)piperidin-1-yl)methyl)-N-((1r,4R)-4-((5-fluoro-4-(3-(2-oxopyridin-1 (2H)-yl)phenyl)pyrimidin-2-yl)amino)cyclohexyl)cyclohexane-1-carboxamide] as the compound, how does the DC50 read?
A: Its DC50 is under 500 nM.

Q: For `O=C1CCC(Nc2ccc(N3CCN([C@H]4CC[C@H](C(=O)N[C@H]5CC[C@H](Nc6ncc(F)c(-c7cccc(N8CCOCC8=O)c7)n6)CC5)CC4)CC3)c(F)c2)C(=O)N1` (stereo partly drawn) [Compound 536, trans-4-(4-(4-((2,6-dioxopiperidin-3-yl)amino)-2-fluorophenyl)piperazin-1-yl)-N-(trans-4-((5-fluoro-4-(3-(3-oxomorpholino)phenyl)pyrimidin-2-yl)amino)cyclohexyl)cyclohexane-1-carboxamide], which DC50 is on record?
A: The DC50 was under 500 nM.

Q: Which DC50 does the source give for `O=C1CCC(Nc2ccc(N3CCN([C@H]4CC[C@H](C(=O)N[C@H]5CC[C@H](Nc6ncc(F)c(-c7cccc(C(=O)N8CC[C@H](O)C8)c7)n6)CC5)CC4)CC3)c(F)c2)C(=O)N1` (stereo partly drawn) [Compound 537, trans-4-(4-(4-((2,6-dioxopiperidin-3-yl)amino)-2-fluorophenyl)piperazin-1-yl)-N-(trans-4-((5-fluoro-4-(3-((S)-3-hydroxypyrrolidine-1-carbonyl)phenyl)pyrimidin-2-yl)amino)cyclohexyl)cyclohexane-1-carboxamide] here?
A: Its DC50 is under 500 nM.

Q: For `O=C1CCC(Nc2ccc(C3CCN([C@H]4CC[C@H](C(=O)N[C@H]5CC[C@H](Nc6ncc(F)c(-c7cccc(N8CCOCC8=O)n7)n6)CC5)CC4)CC3)c(F)c2)C(=O)N1` (stereo partly drawn) [Compound 538, trans-(1r,4R)-4-(4-(4-((2,6-dioxopiperidin-3-yl)amino)-2-fluorophenyl)piperidin-1-yl)-N-((1r,4R)-4-((5-fluoro-4-(6-(3-oxomorpholino)pyridin-2-yl)pyrimidin-2-yl)amino)cyclohexyl)cyclohexane-1-carboxamide], which DC50 is on record?
A: Its DC50 is over 5000 nM.

Q: With `Cn1nc(N2CCC(=O)NC2=O)c2cc(F)c(C3CCN(CC4CCN(C(=O)[C@H]5CC[C@H](Nc6ncc(F)c(-c7cccc(-n8ccccc8=O)c7)n6)CC5)CC4)CC3)cc21` [Compound 540, trans-1-(5-fluoro-6-(1-((1-((1r,4r)-4-((5-fluoro-4-(3-(2-oxopyridin-1(2H)-yl)phenyl)pyrimidin-2-yl)amino)cyclohexane-1-carbonyl)piperidin-4-yl)methyl)piperidin-4-yl)-1-methyl-1H-indazol-3-yl)dihydropyrimidine-2,4(1H,3H)-dione] as the compound, how does the DC50 read?
A: Its DC50 is over 5000 nM.

Q: `O=C1CCC(Nc2ccc(N3CCN([C@H]4CC[C@H](C(=O)N[C@H]5CC[C@H](Nc6ncc(F)c(-c7cccc(N8CCCCC8)c7)n6)CC5)CC4)CC3)c(F)c2)C(=O)N1` (stereo partly drawn) [Compound 541, trans-4-(4-(4-((2,6-dioxopiperidin-3-yl)amino)-2-fluorophenyl)piperazin-1-yl)-N-(trans-4-((5-fluoro-4-(3-(piperidin-1-yl)phenyl)pyrimidin-2-yl)amino)cyclohexyl)cyclohexane-1-carboxamide] was tested. Which DC50 did it give?
A: The DC50 was under 500 nM.

Q: `O=C1CC[C@H](Nc2ccc(N3CCC(N4CCC(C(=O)N[C@H]5CC[C@H](Nc6ncc(F)c(-c7cccc(N8CCCOC8=O)c7)n6)CC5)CC4)CC3)c(F)c2)C(=O)N1` [Compound 542, 1′-(4-(((S)-2,6-dioxopiperidin-3-yl)amino)-2-fluorophenyl)-N-((trans)-4-((5-fluoro-4-(3-(2-oxo-1,3-oxazinan-3-yl)phenyl)pyrimidin-2-yl)amino)cyclohexyl)-[1,4′-bipiperidine]-4-carboxamide] was tested. Which DC50 did it give?
A: The DC50 was under 500 nM.

Q: How did the DC50 turn out when `O=C1CC[C@@H](Nc2ccc(N3CCC(N4CCC(C(=O)N[C@H]5CC[C@H](Nc6ncc(F)c(-c7cccc(N8CCCOC8=O)c7)n6)CC5)CC4)CC3)c(F)c2)C(=O)N1` [Compound 543, 1′-(4-(((R)-2,6-dioxopiperidin-3-yl)amino)-2-fluorophenyl)-N-((trans)-4-((5-fluoro-4-(3-(2-oxo-1,3-oxazinan-3-yl)phenyl)pyrimidin-2-yl)amino)cyclohexyl)-[1,4′-bipiperidine]-4-carboxamide] was run?
A: The DC50 was under 500 nM.

Q: How did the DC50 turn out when `O=C1CC[C@@H](Nc2ccc(N3CCN([C@H]4CC[C@H](C(=O)N[C@H]5CC[C@H](Nc6ncc(F)c(-c7cccc(-c8ccc[nH]c8=O)c7)n6)CC5)CC4)CC3)c(F)c2)C(=O)N1` [Compound 544, trans-4-(4-(4-(((R)-2,6-dioxopiperidin-3-yl)amino)-2-fluorophenyl)piperazin-1-yl)-N-((trans)-4-((5-fluoro-4-(3-(2-oxo-1,2-dihydropyridin-3-yl)phenyl)pyrimidin-2-yl)amino)cyclohexyl)cyclohexane-1-carboxamide] was run?
A: Its DC50 is under 500 nM.

Q: How did the DC50 turn out when `O=C1CCC(Nc2ccc(C3CCN([C@H]4CC[C@H](NC(=O)[C@H]5CC[C@H](Nc6ncc(F)c(-c7cccc(N8CCOCC8=O)n7)n6)CC5)CC4)CC3)c(F)c2)C(=O)N1` (stereo partly drawn) [Compound 545, trans-N-(trans-4-(4-(4-((2,6-dioxopiperidin-3-yl)amino)-2-fluorophenyl)piperidin-1-yl)cyclohexyl)-4-((5-fluoro-4-(6-(3-oxomorpholino)pyridin-2-yl)pyrimidin-2-yl)amino)cyclohexane-1-carboxamide] was run?
A: Its DC50 is under 500 nM.

Q: For `O=C1CCC(Nc2ccc(C3CCN([C@H]4CC[C@H](NC(=O)[C@H]5CC[C@H](Nc6ncc(F)c(-c7cccc(N8CCCCC8=O)n7)n6)CC5)CC4)CC3)c(F)c2)C(=O)N1` (stereo partly drawn) [Compound 546, trans-N-(trans-4-(4-(4-((2,6-dioxopiperidin-3-yl)amino)-2-fluorophenyl)piperidin-1-yl)cyclohexyl)-4-((5-fluoro-4-(6-(2-oxopiperidin-1-yl)pyridin-2-yl)pyrimidin-2-yl)amino)cyclohexane-1-carboxamide], which DC50 is on record?
A: Its DC50 is under 500 nM.
